Holding throughout (experiment): relative viability (nuclei count vs DMSO), 5 days (fraction); higher = more cells survive
Compound in experiment [1]: CC1=CC(=NN1)NC2=CC(=NC(=N2)/C=C/C3=CC=CC=C3)N4CCN(CC4)C + C[C@]1(O)C[C@@H](c2nc(-c3ccc4ccc(-c5ccccc5)nc4c3)c3c(N)nccn32)C1 [Linsitinib] (partner 1 µM)
An outline of the steps:
(§1)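 Nuclei were stained with Hoechst during a one-step fixation (final 0.05% Triton X-100, 1% formaldehyde, 1 ug/ml Hoechst) carried out 5 days after dosing, then counted on 4× images. The cells, lung cancer lines in 1536-well plates, had been dosed by pin tool the day after seeding with one drug alone or a fixed anchor-drug dose plus five library-drug doses (not always all listed) in √10 steps. Relative viability is the nuclei count in treated wells divided by that in vehicle wells, and each value is the median of duplicate plates.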

Compound in the experiment “Obatoclax + Dasatinib”: COC1=CC(c2cc3ccccc3[nH]2)=N/C1=C\c1[nH]c(C)cc1C [Obatoclax] + Cc1nc(Nc2ncc(C(=O)Nc3c(C)cccc3Cl)s2)cc(N2CCN(CCO)CC2)n1 [Dasatinib] (partner 0.075 µM)
The method, boiled down: as §1

Compound in the experiment “Obatoclax + Foretinib”: COC1=CC(c2cc3ccccc3[nH]2)=N/C1=C\c1[nH]c(C)cc1C [Obatoclax] + COc1cc2c(Oc3ccc(NC(=O)C4(C(=O)Nc5ccc(F)cc5)CC4)cc3F)ccnc2cc1OCCCN1CCOCC1 [Foretinib] (partner 0.25 µM)
The method, boiled down:
as §1

Compound in the experiment “Obatoclax + Phenformin”: COC1=CC(c2cc3ccccc3[nH]2)=N/C1=C\c1[nH]c(C)cc1C [Obatoclax] + N=C(N)NC(=N)NCCc1ccccc1 [Phenformin] (partner 250 µM)
The method, boiled down: as §1

For the cell line 201T, the relative viability was 1.02 in experiment [1] (first compound 0.08 µM); 1.07 in experiment [1] (first compound 0.253 µM); 1 in experiment [1] (first compound 0.8 µM); 0.897 in experiment [1] (first compound 2.53 µM); 0.819 in experiment [1] (first compound 8 µM); 0.599 in the experiment with Obatoclax + Dasatinib (first compound 0.01 µM). Further, the relative viability came out at 0.412 in the experiment with Obatoclax + Dasatinib (first compound 0.03162 µM); 0.588 in the experiment with Obatoclax + Dasatinib (first compound 0.1 µM); 0.569 with Obatoclax + Dasatinib (first compound 0.3162 µM); 0.6 with Obatoclax + Dasatinib (first compound 1 µM); 1.09 with Obatoclax + Foretinib (first compound 0.01 µM); 1.12 in the experiment with Obatoclax + Foretinib (first compound 0.03162 µM). The relative viability with Obatoclax + Foretinib (first compound 0.1 µM) is 1.1; in the experiment with Obatoclax + Foretinib (first compound 0.3162 µM), 1.09; with Obatoclax + Foretinib (first compound 1 µM) it was 0.768; in the experiment with Obatoclax + Phenformin (first compound 0.01 µM), 0.434; with Obatoclax + Phenformin (first compound 0.03162 µM), 0.457; in the experiment with Obatoclax + Phenformin (first compound 0.1 µM), 0.43. Besides, the values for the relative viability in the experiment with Obatoclax + Phenformin (first compound 0.3162 µM) and with Obatoclax + Phenformin (first compound 1 µM) were 0.399 and 0.463, respectively.
A549: the relative viability in experiment [1] (first compound 0.08 µM) worked out at 0.538; in experiment [1] (first compound 0.253 µM), 0.689; in experiment [1] (first compound 0.8 µM) it was 0.481; in experiment [1] (first compound 2.53 µM), 0.275; in experiment [1] (first compound 8 µM) it was 0.0279; with Obatoclax + Foretinib (first compound 0.01 µM), 0.958. The relative viability with Obatoclax + Foretinib (first compound 0.03162 µM) came out at 0.947; with Obatoclax + Foretinib (first compound 0.1 µM), 0.979; with Obatoclax + Foretinib (first compound 0.3162 µM), 0.959; with Obatoclax + Foretinib (first compound 1 µM), 0.764; with Obatoclax + Phenformin (first compound 0.01 µM) it was 0.131; in the experiment with Obatoclax + Phenformin (first compound 0.03162 µM), 0.248. For the same cell line, the values for the relative viability in the experiment with Obatoclax + Phenformin (first compound 0.1 µM), with Obatoclax + Phenformin (first compound 0.3162 µM) and with Obatoclax + Phenformin (first compound 1 µM) were 0.035, 0.222 and 0.0807, respectively.
Consider A-427, for which the relative viability in experiment [1] (first compound 0.08 µM) worked out at 1.2; in experiment [1] (first compound 0.253 µM), 1.16; in experiment [1] (first compound 0.8 µM), 1.09; in experiment [1] (first compound 2.53 µM), 0.87; in experiment [1] (first compound 8 µM), 0.305; with Obatoclax + Dasatinib (first compound 0.01 µM), 0.719. In addition, the relative viability amounted to 0.687 with Obatoclax + Dasatinib (first compound 0.03162 µM); 0.462 with Obatoclax + Dasatinib (first compound 0.1 µM); 0.6 in the experiment with Obatoclax + Dasatinib (first compound 0.3162 µM); 0.271 in the experiment with Obatoclax + Dasatinib (first compound 1 µM); 1.16 in the experiment with Obatoclax + Foretinib (first compound 0.01 µM); 0.989 with Obatoclax + Foretinib (first compound 0.03162 µM). In addition, the relative viability in the experiment with Obatoclax + Foretinib (first compound 0.1 µM) was 1.01; with Obatoclax + Foretinib (first compound 0.3162 µM), 0.972; with Obatoclax + Foretinib (first compound 1 µM), 0.984; with Obatoclax + Phenformin (first compound 0.01 µM), 0.339; in the experiment with Obatoclax + Phenformin (first compound 0.03162 µM), 0.342; with Obatoclax + Phenformin (first compound 0.1 µM) it was 0.32. For the same cell line, the results for the relative viability with Obatoclax + Phenformin (first compound 0.3162 µM) and with Obatoclax + Phenformin (first compound 1 µM) were 0.287 and 0.165, respectively.
On to ABC-1, for which the relative viability in experiment [1] (first compound 0.08 µM) is 0.787; in experiment [1] (first compound 0.253 µM), 0.983; in experiment [1] (first compound 0.8 µM) it was 0.724; in experiment [1] (first compound 2.53 µM) it was 0.581; in experiment [1] (first compound 8 µM), 0.173; in the experiment with Obatoclax + Dasatinib (first compound 0.01 µM), 0.498. The relative viability with Obatoclax + Dasatinib (first compound 0.03162 µM) is 0.55; with Obatoclax + Dasatinib (first compound 0.1 µM), 0.369; with Obatoclax + Dasatinib (first compound 0.3162 µM), 0.551; with Obatoclax + Dasatinib (first compound 1 µM) it was 0.375; with Obatoclax + Foretinib (first compound 0.01 µM) it was 1.11; in the experiment with Obatoclax + Foretinib (first compound 0.03162 µM) it was 1.15. Moreover, the relative viability with Obatoclax + Foretinib (first compound 0.1 µM) came out at 1.23; in the experiment with Obatoclax + Foretinib (first compound 0.3162 µM), 1.06; in the experiment with Obatoclax + Foretinib (first compound 1 µM), 0.975; with Obatoclax + Phenformin (first compound 0.01 µM), 0.226; with Obatoclax + Phenformin (first compound 0.03162 µM), 0.215; with Obatoclax + Phenformin (first compound 0.1 µM), 0.291. Moreover, the relative viability with Obatoclax + Phenformin (first compound 0.3162 µM) was found to be 0.22; in the experiment with Obatoclax + Phenformin (first compound 1 µM), 0.297.

Values taken from the supplement of paper PMC10307832.
